From US10278973B2, “Hydroxyl purine compounds and use thereof” (GUANGDONG RAYNOVENT BIOTECH CO., LTD., priority 2015, dated 2019)

The compounds below were run against T1, Full length human PDE2A protease (Homo sapiens, UniProt O00408) (assay: In vitro evaluation of PDE2 phosphodiesterase inhibitory activity (Transcreener AMP2/GMP2 fluorescence polarization)). Details: not given.
T1 construct: Full length human PDE2A protease; GST (N); host or cells: insect Sf9 cells (baculovirus)
Type: biochemical
Experimental: In Vitro Evaluation of PDE2 Phosphodiesterase Inhibitory Activity Experimental objectives: To detect the concentration of AMP/GMP produced in the reaction system by measuring the fluorescence intensity of the fluorescent dye AlexaFluor 633 substituted on AMP/GMP antibody and to calculate the PDE2 phosphodiesterase inhibitory IC50 value of the test compound. Test buffer solution: 10 mM Tris-HCl, pH 7.5, 5 mM MgCl2, 0.01% Brij 35, 1 mM DTT, and 1% DMSO. Enzyme: Full length human PDE2A protease expressed and recombined in insect Sf9 cells with baculovirus using N-terminal GST tag […] Transcreener® AMP^2/GMP^2 antibody, AMP2/GMP2 AlexaFluor 633 fluorescent dye The enzyme solution was prepared with freshly prepared buffer solution and then added to the reaction wells. The DMSO solution of the test compound was added by Echo550 non-contact nanoscale sonicate pipetting system and preincubated for 10 minutes at room temperature. The reaction was initiated by addition of substrate (1 μM cGMP) and allowed to react for one hour at room temperature. The detection system (Transcreener® AMP^2/GMP^2 antibody, AMP2/GMP2 AlexaFluor 633 fluorescent dye) was then added and reacted for 90 minutes at room temperature before fluorescence polarization was detected using Ex/Em 620/688. The intensity of fluorescence polarization was converted to nM concentration by the AMP/GMP standard curve and then relative inhibition of enzyme activity relative to DMSO blank was calculated. IC50 values and curves were calculated using the Prism software package (GraphPad Software, San Diego Calif., USA)

T1 sequence (O00408 whole entry): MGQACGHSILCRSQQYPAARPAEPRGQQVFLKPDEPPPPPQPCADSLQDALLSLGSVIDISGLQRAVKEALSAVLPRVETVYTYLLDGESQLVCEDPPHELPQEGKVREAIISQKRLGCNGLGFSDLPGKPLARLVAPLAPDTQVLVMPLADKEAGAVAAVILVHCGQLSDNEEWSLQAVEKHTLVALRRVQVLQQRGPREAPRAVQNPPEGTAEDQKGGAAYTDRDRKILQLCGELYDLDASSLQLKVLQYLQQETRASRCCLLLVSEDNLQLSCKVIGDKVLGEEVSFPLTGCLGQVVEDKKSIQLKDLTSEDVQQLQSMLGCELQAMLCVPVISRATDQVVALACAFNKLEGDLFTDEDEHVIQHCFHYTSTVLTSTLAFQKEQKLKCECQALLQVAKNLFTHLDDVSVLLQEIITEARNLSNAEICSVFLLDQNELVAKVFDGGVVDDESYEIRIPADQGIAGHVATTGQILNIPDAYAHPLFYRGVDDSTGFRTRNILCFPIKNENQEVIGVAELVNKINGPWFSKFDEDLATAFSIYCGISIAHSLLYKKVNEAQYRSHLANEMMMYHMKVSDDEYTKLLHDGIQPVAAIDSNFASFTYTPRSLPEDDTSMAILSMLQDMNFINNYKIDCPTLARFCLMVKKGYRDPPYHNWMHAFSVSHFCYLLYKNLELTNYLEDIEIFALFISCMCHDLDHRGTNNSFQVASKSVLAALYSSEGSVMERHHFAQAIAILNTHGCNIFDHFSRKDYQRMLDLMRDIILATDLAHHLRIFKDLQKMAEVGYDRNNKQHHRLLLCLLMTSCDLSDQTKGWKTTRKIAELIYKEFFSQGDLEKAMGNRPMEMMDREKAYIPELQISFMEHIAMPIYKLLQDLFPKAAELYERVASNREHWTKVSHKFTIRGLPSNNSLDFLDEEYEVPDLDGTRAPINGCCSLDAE

Row | Compound | IC50
1 | COc1ccc(Cn2c(=O)c3c(ncn3C)n(C)c2=O)cn1 [Example 48, 1-((6-Methoxypyridin-3-yl)methyl)-3,7-dimethyl-1H-purine-2,6(3H,7H)-dione] | 10 to 50 µM

Same assay, conditions: recombinant full length human PDE2A, substrate 1 μM cGMP, 1 hour at room temperature; read-out: PDE2 phosphodiesterase inhibitory activity

Row | Compound | IC50
2 | Cc1cc(CCCCn2c(=O)c3c(ncn3C)n(C)c2=O)no1 [Example 20, 3,7-Dimethyl-1-(4-(5-methylisoxazol-3-yl)butyl)-1H-purine-2,6(3H,7H)-dione] | 10 to 50 µM
3 | CC(C)c1oncc1Cn1c(=O)c2c(ncn2C)n(C)c1=O [Example 22, 1-((5-Isopropylisoxazol-4-yl)methyl)-3,7-dimethyl-1H-purine-2,6(3H,7H)-dione] | 10 to 50 µM
4 | Cc1nc(C)c(Cn2c(=O)c3c(ncn3C)n(C)c2=O)s1 [Example 29, 1-((2,4-Dimethylthiazol-5-yl)methyl)-3,7-dimethyl-1H-purine-2,6(3H,7H)-dione] | 10 to 50 µM
5 | Cn1cnc2c1c(=O)n(CCCCc1cn[nH]n1)c(=O)n2C [Example 34, 1-(4-(2H-1,2,3-triazol-4-yl)butyl)-3,7-dimethyl-1H-purine-2,6(3H,7H)-dione] | 10 to 50 µM
6 | Cn1ncc(CCCCn2c(=O)c3c(ncn3C)n(C)c2=O)n1 [Example 35, 3,7-Dimethyl-1-(4-(2-methyl-2H-1,2,3-triazol-4-yl)butyl)-1H-purine-(3H,7H)-dione] | 10 to 50 µM
7 | Cn1cnc2c1c(=O)n(CCCCc1nn[nH]n1)c(=O)n2C [Example 37, 1-(4-(2H-tetrazol-5-yl)butyl)-3,7-dimethyl-1H-purine-2,6(3H,7H)-dione] | 10 to 50 µM
8 | Cn1nnc(CCCCn2c(=O)c3c(ncn3C)n(C)c2=O)n1 [Example 38 Isomer 1, 3,7-Dimethyl-1-(4-(2-methyl-2H-tetrazol-5-yl)butyl)-1H-purine-(3H,7H)-dione] | 10 to 50 µM
9 | Cn1cnc2c1c(=O)n(CCCCCc1nn[nH]n1)c(=O)n2C [Example 39, 1-(5-(2H-tetrazol-5-yl)pentyl)-3,7-dimethyl-1H-purine-2,6(3H,7H)-dione] | 10 to 50 µM
10 | Cn1cnc2c1c(=O)n(CCCc1nc3ccccc3s1)c(=O)n2C [Example 43, 1-(3-(Benzo[d]thiazol-2-yl)propyl)-3,7-dimethyl-1H-purine 2,6(3H,7H)-dione] | 10 to 50 µM
11 | Cn1cnc2c1c(=O)n(CCCc1[nH]nc3c1CCCC3)c(=O)n2C [Example 44] | 10 to 50 µM
12 | Cc1cc(CCCCn2c(=O)c3c(ncn3CC(F)(F)F)n(C)c2=O)on1 [Example 51, 3-Methyl-1-(4-(3-methylisoxazol-5-yl)butyl)-7-(2,2,2-trifluoroethyl)-1H-purine-2,6(3H,7H)-dione] | 10 to 50 µM
13 | Cc1cc(CCCCn2c(=O)c3c(ncn3C(C)C)n(C)c2=O)on1 [Example 54, 7-Isopropyl-3-methyl-1-(4-(3-methylisoxazol-5-yl)butyl)-1H-purine-2,6(3H,7H)-dione] | 10 to 50 µM
14 | Cc1cc(CCCCn2c(=O)c3c(ncn3CC3(C)COC3)n(C)c2=O)on1 [Example 61, 3-Methyl-1-(4-(3-methylisoxazol-5-yl)butyl)-7-((3-methyloxetan-3-yl)methyl)-1H-purine-2,6(3H,7H)-dione] | 10 to 50 µM
15 | Cc1cc(CCCCn2c(=O)c3cc[nH]c3n(C)c2=O)on1 [Example 66, 1-Methyl-3-(4-(3-methylisoxazol-5-yl)butyl)-1H-pyrrolo[2,3-d]pyrimidine-2,4(3H,7H)-dione] | 10 to 50 µM
16 | Cc1cc(CCCCn2c(=O)c3ccn(C)c3n(C)c2=O)on1 [Example 67, 1,7-Dimethyl-3-(4-(3-methylisoxazol-5-yl)butyl)-1H-pyrrolo[2,3-d]pyrimidine-2,4(3H,7H)-dione] | 10 to 50 µM
17 | Cc1cc(CCCCn2c(=O)c3nn(C)cc3n(C)c2=O)on1 [Example 69, 2,4-Dimethyl-6-[4-(3-methylisoxazol-5-yl)-butyl]-2,4-dihydro-pyrazolo[4,3-d]pyrimidine-5,7-dione] | 10 to 50 µM
18 | Cc1cc(CCCCn2c(=O)c3c(cnn3CC(F)(F)F)n(C)c2=O)on1 [Example 75, 4-Methyl-6-(4-(3-methylisoxazol-5-yl)butyl)-1-(2,2,2-trifluoroethyl)-pyrazolo[4,3-d]pyrimidine-5,7-dione] | 10 to 50 µM
19 | Cc1cc(CCCCn2c(=O)c3c(cnn3CC3CC3)n(C)c2=O)on1 [Example 81, 1-(Cyclopropylmethyl)-4-methyl-6-(4-(3-methylisoxazol-5-yl)butyl)-pyrazolo[4,3-d]pyrimidin-5,7-dione] | 10 to 50 µM
20 | Cc1cc(CCCCn2c(=O)c3ccccc3n(C)c2=O)on1 [Example 83, 1-Methyl-3-(4-(3-methylisoxazol-5-yl)butyl)quinazoline-2,4(1H,3H)-dione] | 10 to 50 µM

Further lines, results first:

Row | IC50 | Compound
21 | 10 to 50 µM | Cc1cc(CCCCn2c(=O)c3c(ncn3C)n(C)c2=O)n(C)n1 (single isomer, unassigned) [Example 14 Isomer 1, 1-(4-(1,3-dimethyl-1H-pyrazol-5-yl)butyl)-3,7-dimethyl-1H-purine-2,6(3H,7H)-dione]
22 | 10 to 50 µM | Cn1nnnc1CCCCCn1c(=O)c2c(ncn2C)n(C)c1=O (single isomer, unassigned) [Example 40 Isomer 1, 3,7-Dimethyl-1-(5-(1-methyl-1H-tetrazol-5-yl)pentyl)-1H-purine-(3H,7H)-dione]
23 | 10 to 50 µM | Cn1nnc(CCCCCn2c(=O)c3c(ncn3C)n(C)c2=O)n1 (single isomer, unassigned) [Example 40 Isomer 2, 3,7-Dimethyl-1-(5-(1-methyl-2H-tetrazol-5-yl)pentyl)-1H-purine-(3H,7H)-dione]
24 | 10 to 50 µM | Cc1cc(CCCCn2c(=O)c3c(ncn3C(F)F)n(C)c2=O)on1 (single isomer, unassigned) [Example 49 Isomer 1, 7-(Difluoromethyl)-3-methyl-1-(4-(3-methylisoxazol-5-yl)butyl)-1H-purine-2,6(3H,7H)-dione]
25 | 10 to 50 µM | CCc1cc(CCn2c(=O)c3c(ncn3C)n(C)c2=O)nn1C [Example 11 Product 2, 1-(2-(5-Ethyl-1-methyl-1H-pyrazol-3-yl)ethyl)-3,7-dimethyl-1H-purine-2,6(3H,7H)-dione]
26 | 10 to 50 µM | Cc1cc(CCCCn2c(=O)c3c(ncn3C)n(C)c2=O)[nH]n1 [Example 12, 3,7-Dimethyl-1-(4-(3-methyl-1H-pyrazol-5-yl)butyl)-1H-purine-2,6(3H,7H)-dione]
27 | 1 to 10 µM | Cc1cc(CC2CCCC(n3c(=O)c4c(ncn4C)n(C)c3=O)C2)on1 (stereo not shown) [Example 28]
28 | 1 to 10 µM | Cn1cnc2c1c(=O)n(CCCc1c[nH]c3ccccc13)c(=O)n2C [Example 41]
29 | 1 to 10 µM | Cn1cnc2c1c(=O)n(CCCCc1cc3ccccc3o1)c(=O)n2C [Example 42, 1-(4-(Benzofuran-2-yl)butyl)-3,7-dimethyl-1H-purine-2,6(3H,7H)-dione]
30 | 1 to 10 µM | Cc1cc(-c2ccc(Cn3c(=O)c4c(ncn4C)n(C)c3=O)cc2)on1 [Example 45, 3,7-Dimethyl-1-[4-(3-methylisoxazol-5-yl)-benzyl]-3,7-dihydro-purine-2,6-dione]
31 | 1 to 10 µM | CCn1cnc2c1c(=O)n(CCCCc1cc(C)no1)c(=O)n2C [Example 50, 7-Ethyl-3-methyl-1-(4-(3-methylisoxazol-5-yl)butyl)-1H-purine-2,6(3H,7H)-dione]
32 | 1 to 10 µM | CCCn1cnc2c1c(=O)n(CCCCc1cc(C)no1)c(=O)n2C [Example 52, 3-Methyl-1-(4-(3-methylisoxazol-5-yl)butyl)-7-propyl-1H-purine-2,6(3H,7H)-dione]
33 | 1 to 10 µM | CCCCn1cnc2c1c(=O)n(CCCCc1cc(C)no1)c(=O)n2C [Example 55, 7-Butyl-3-methyl-1-(4-(3-methylisoxazol-5-yl)butyl)-1H-purine-2,6(3H,7H)-dione]
34 | 1 to 10 µM | Cc1cc(CCCCn2c(=O)c3c(ncn3CC3CC3)n(C)c2=O)on1 [Example 56, 7-(Cyclopropylmethyl)-3-methyl-1-(4-(3-methylisoxazol-5-yl)butyl)-1H-purine-2,6(3H,7H)-dione]
35 | 1 to 10 µM | Cc1noc(C)c1Cn1c(=O)c2c(ncn2CC2CC2)n(C)c1=O [Example 57, 7-(Cyclopropylmethyl)-1-((3,5-dimethylisoxazol-4-yl)methyl)-3-methyl-1H-purine-2,6-(3H,7H)-dione]
36 | 1 to 10 µM | CC(C)c1oncc1Cn1c(=O)c2c(ncn2CC2CC2)n(C)c1=O [Example 58]
37 | 1 to 10 µM | Cc1cc(CCCCn2c(=O)c3c(ncn3CC(C)C)n(C)c2=O)on1 [Example 60, 7-Isobutyl-3-methyl-1-(4-(3-methylisoxazol-5-yl)butyl)-1H-purine-2,6(3H,7H)-dione]
